Biological target: AKT (PH domain) (Homo sapiens, UniProt P31749)
Assay: intrinsic fluorescence quenching
Type: binding

Sequence of AKT (PH domain) (P31749 1-123): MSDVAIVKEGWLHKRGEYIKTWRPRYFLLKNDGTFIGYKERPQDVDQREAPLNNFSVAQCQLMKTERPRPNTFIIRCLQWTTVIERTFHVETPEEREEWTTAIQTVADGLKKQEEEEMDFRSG

| Compound | Kd [µM] |
| --- | --- |
| COc1cc(/C=C/C(=O)O)ccc1O[C@@H]1O[C@H](C(=O)O)[C@@H](O)[C@H](O)[C@H]1O [FA4G, ferulic-4′-O-glucuronide] | 48.1 |
| O=C(O)/C=C/c1ccc(O[C@@H]2O[C@H](C(=O)O)[C@@H](O)[C@H](O)[C@H]2O)c(O)c1 [CA4G, caffeic-4′-O-glucuronide] | 37.9 |
| O=C(O)/C=C/c1ccc(O)c(O)c1 [CA, caffeic acid] | 183 |
| COc1cc(/C=C/C(=O)O)ccc1O [FA, ferulic acid] | 185 |

Source: article PMC10394347 (Chinese Herbal Medicines, 2023)
